Measurements taken from patent US20220041606A1, “POSITIVE ALLOSTERIC MODULATORS OF THE MUSCARINIC ACETYLCHOLINE RECEPTOR M1” (Vanderbilt University, priority 2020, published 2022).

Experiments:
human mAChR M1 [1] = target: T1, human mAChR M1 (Homo sapiens, UniProt P11229); test: mAChR M1 cell-based functional assay (calcium mobilization), agonist activity upon compound addition; settings: CHO-K1 cells expressing hM1; for EC50: compound alone, before acetylcholine addition; for Emax: relative to the maximum for acetylcholine
T1 construct: host or cells: CHO-K1 cells (ATCC), stably transfected using Lipofectamine2000
T1 sequence (P11229 1-460): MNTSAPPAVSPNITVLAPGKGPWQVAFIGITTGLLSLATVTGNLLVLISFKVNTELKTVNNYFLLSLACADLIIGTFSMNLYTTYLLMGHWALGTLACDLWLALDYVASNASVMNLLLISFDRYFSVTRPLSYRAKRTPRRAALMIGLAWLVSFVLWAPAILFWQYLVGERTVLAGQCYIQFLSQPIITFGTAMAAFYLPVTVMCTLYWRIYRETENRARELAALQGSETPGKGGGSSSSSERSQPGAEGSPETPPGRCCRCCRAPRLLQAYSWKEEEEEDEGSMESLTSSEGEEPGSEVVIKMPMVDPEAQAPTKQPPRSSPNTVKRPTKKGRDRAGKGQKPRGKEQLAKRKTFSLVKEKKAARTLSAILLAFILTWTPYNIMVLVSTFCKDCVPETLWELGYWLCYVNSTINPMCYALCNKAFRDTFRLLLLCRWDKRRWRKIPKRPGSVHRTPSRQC
Method in brief: (§1)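 Fluorescence ratio calcium read-out (Fluo-4 AM, FDSS 6000) in human M1-expressing CHO-K1 cells. Agonist activity taken as concentration-dependent rise after compound addition; potentiation as enhancement of a subsequent EC20 acetylcholine challenge. Curves from 11-point threefold dilutions fitted by four-parameter logistic; Emax expressed versus acetylcholine maximum.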

human mAChR M1 [2] = target: T1, human mAChR M1; test: mAChR M1 cell-based functional assay (calcium mobilization), PAM activity: increase in the EC20 acetylcholine response; settings: CHO-K1 cells expressing hM1; potentiation of EC20 acetylcholine response
Method in brief: as §1

EC50 (human mAChR M1 [1]) [µM]	Emax (human mAChR M1 [1]) [%]	EC50 (human mAChR M1 [2]) [µM]	Emax (human mAChR M1 [2]) [%]	Compound
> 10	< 5	≥ 10	53	O=C(N[C@H]1CCCCC[C@@H]1O)c1cn(Cc2ccc(-n3cccn3)cc2)c(=O)c2nccnc12 [Compound A62, 6-(4-(1H-pyrazol-1-yl)benzyl)-N-((1S,2S)-2-hydroxycycloheptyl)-5-oxo-5,6-dihydropyrido[3,4-b]pyrazine-8-carboxamide]
> 10	7	≥ 10	55	Cn1ccc(-c2ccc(Cn3cc(C(=O)N[C@H]4CCOC[C@@H]4O)c4nccnc4c3=O)c(F)c2)n1 [Compound A63, 6-(2-fluoro-4-(1-methyl-1H-pyrazol-3-yl)benzyl)-N-((3R,4S)-3-hydroxytetrahydro-2H-pyran-4-yl)-5-oxo-5,6-dihydropyrido[3,4-b]pyrazine-8-carboxamide]
> 10	41	≥ 10	41	Cn1ccc(-c2ccc(Cn3cc(C(=O)N[C@H]4CCC[C@@H]4O)c4nccnc4c3=O)c(F)c2)n1 [Compound A64, 6-(2-fluoro-4-(1-methyl-1H-pyrazol-3-yl)benzyl)-N-((1S,2S)-2-hydroxycyclopentyl)-5-oxo-5,6-dihydropyrido[3,4-b]pyrazine-8-carboxamide]
> 10	6	5.25	63	Cn1ccc(-c2ccc(Cn3cc(C(=O)N[C@H]4CCCCC[C@@H]4O)c4nccnc4c3=O)c(F)c2)n1 [Compound A65, 6-(2-fluoro-4-(1-methyl-1H-pyrazol-3-yl)benzyl)-N-((1S,2S)-2-hydroxycycloheptyl)-5-oxo-5,6-dihydropyrido[3,4-b]pyrazine-8-carboxamide]
5	46	0.28	72	Cn1cc2c(-c3cc(F)c(Cn4cc(C(=O)N[C@H]5CCOC[C@@H]5O)c5nccnc5c4=O)c(F)c3)cccc2n1 [Compound A66, 6-(2,6-difluoro-4-(2-methyl-2H-indazol-4-yl)benzyl)-N-((3R,4S)-3-hydroxytetrahydro-2H-pyran-4-yl)-5-oxo-5,6-dihydropyrido[3,4-b]pyrazine-8-carboxamide]
5	46	0.62	77	Cn1cc2c(-c3cc(F)c(Cn4cc(C(=O)N[C@H]5CCCCC[C@@H]5O)c5nccnc5c4=O)c(F)c3)cccc2n1 [Compound A67, 6-(2,6-difluoro-4-(2-methyl-2H-indazol-4-yl)benzyl)-N-((1S,2S)-2-hydroxycycloheptyl)-5-oxo-5,6-dihydropyrido[3,4-b]pyrazine-8-carboxamide]
–	8	1.2	74	Cn1cc2c(-c3cc(F)c(Cn4cc(C(=O)N[C@H]5CCC[C@@H]5O)c5nccnc5c4=O)c(F)c3)cccc2n1 [Compound A68, 6-(2,6-difluoro-4-(2-methyl-2H-indazol-4-yl)benzyl)-N-((1S,2S)-2-hydroxycyclopentyl)-5-oxo-5,6-dihydropyrido[3,4-b]pyrazine-8-carboxamide]
> 10	< 5	3.89	57	Cn1cc2c(-c3cc(F)c(Cn4cc(C(=O)N[C@H]5CC[C@@H]5O)c5nccnc5c4=O)c(F)c3)cccc2n1 [Compound A69, 6-(2,6-difluoro-4-(2-methyl-2H-indazol-4-yl)benzyl)-N-((1S,2S)-2-hydroxycyclobutyl)-5-oxo-5,6-dihydropyrido[3,4-b]pyrazine-8-carboxamide]
> 10	< 5	5.5	45	Cn1cc2c(-c3cc(F)c(Cn4cc(C(=O)NC5CCOCC5)c5nccnc5c4=O)c(F)c3)cccc2n1 [Compound A70, 6-(2,6-difluoro-4-(2-methyl-2H-indazol-4-yl)benzyl)-5-oxo-N-(tetrahydro-2H-pyran-4-yl)-5,6-dihydropyrido[3,4-b]pyrazine-8-carboxamide]
> 10	< 5	3.1	57	Cn1cc2c(-c3cc(F)c(Cn4cc(C(=O)NC5CC6(COC6)C5)c5nccnc5c4=O)c(F)c3)cccc2n1 [Compound A71, 6-(2,6-difluoro-4-(2-methyl-2H-indazol-4-yl)benzyl)-5-oxo-N-(2-oxaspiro[3.3]heptan-6-yl)-5,6-dihydropyrido[3,4-b]pyrazine-8-carboxamide]
> 10	< 5	≥ 10	32	Cn1cc2c(-c3cc(F)c(Cn4cc(C(=O)NC5(CO)CCOC5)c5nccnc5c4=O)c(F)c3)cccc2n1 (stereo not drawn) [Compound A72, 6-(2,6-difluoro-4-(2-methyl-2H-indazol-4-yl)benzyl)-N-(3-(hydroxymethyl)tetrahydrofuran-3-yl)-5-oxo-5,6-dihydropyrido[3,4-b]pyrazine-8-carboxamide]
> 10	< 5	4.04	67	Cn1cc2c(-c3cc(F)c(Cn4cc(C(=O)NCC(C)(C)O)c5nccnc5c4=O)c(F)c3)cccc2n1 [Compound A73, 6-(2,6-difluoro-4-(2-methyl-2H-indazol-4-yl)benzyl)-N-(2-hydroxy-2-methylpropyl)-5-oxo-5,6-dihydropyrido[3,4-b]pyrazine-8-carboxamide]
> 10	< 5	3.81	53	Cn1cc2c(-c3cc(F)c(Cn4cc(C(=O)NCC(O)C(F)(F)F)c5nccnc5c4=O)c(F)c3)cccc2n1 (stereo not drawn) [Compound A74, 6-(2,6-difluoro-4-(2-methyl-2H-indazol-4-yl)benzyl)-5-oxo-N-(3,3,3-trifluoro-2-hydroxypropyl)-5,6-dihydropyrido[3,4-b]pyrazine-8-carboxamide]
> 10	< 5	3.54	56	CC(C)[C@@H](CO)NC(=O)c1cn(Cc2c(F)cc(-c3cccc4nn(C)cc34)cc2F)c(=O)c2nccnc12 [Compound A75, (S)-6-(2,6-difluoro-4-(2-methyl-2H-indazol-4-yl)benzyl)-N-(1-hydroxy-3-methylbutan-2-yl)-5-oxo-5,6-dihydropyrido[3,4-b]pyrazine-8-carboxamide]
> 10	< 5	4.33	53	CC[C@H](C)[C@@H](CO)NC(=O)c1cn(Cc2c(F)cc(-c3cccc4nn(C)cc34)cc2F)c(=O)c2nccnc12 [Compound A76, 6-(2,6-difluoro-4-(2-methyl-2H-indazol-4-yl)benzyl)-N-((2S,3S)-1-hydroxy-3-methylpentan-2-yl)-5-oxo-5,6-dihydropyrido[3,4-b]pyrazine-8-carboxamide]
–	18	4.21	72	Cn1cc(-c2ccc(Cn3cc(C(=O)N[C@H]4CCOC[C@@H]4O)c4nccnc4c3=O)c(F)c2)cn1 [Compound A77, 6-(2-fluoro-4-(1-methyl-1H-pyrazol-4-yl)benzyl)-N-((3R,4S)-3-hydroxytetrahydro-2H-pyran-4-yl)-5-oxo-5,6-dihydropyrido[3,4-b]pyrazine-8-carboxamide]
–	5	2.98	67	Cn1cc(-c2ccc(Cn3cc(C(=O)N[C@H]4CCCCC[C@@H]4O)c4nccnc4c3=O)c(F)c2)cn1 [Compound A78, 6-(2-fluoro-4-(1-methyl-1H-pyrazol-4-yl)benzyl)-N-((1S,2S)-2-hydroxycycloheptyl)-5-oxo-5,6-dihydropyrido[3,4-b]pyrazine-8-carboxamide]
> 10	< 5	≥ 10	51	Cn1cc(-c2ccc(Cn3cc(C(=O)N[C@H]4CCC[C@@H]4O)c4nccnc4c3=O)c(F)c2)cn1 [Compound A79, 6-(2-fluoro-4-(1-methyl-1H-pyrazol-4-yl)benzyl)-N-((1S,2S)-2-hydroxycyclopentyl)-5-oxo-5,6-dihydropyrido[3,4-b]pyrazine-8-carboxamide]
> 10	< 5	≥ 10	30	Cn1cc(-c2ccc(Cn3cc(C(=O)NCC(C)(C)O)c4nccnc4c3=O)c(F)c2)cn1 [Compound A80, 6-(2-fluoro-4-(1-methyl-1H-pyrazol-4-yl)benzyl)-N-(2-hydroxy-2-methylpropyl)-5-oxo-5,6-dihydropyrido[3,4-b]pyrazine-8-carboxamide]
> 10	< 5	≥ 10	33	Cn1cc(-c2ccc(Cn3cc(C(=O)NCC(O)C(F)(F)F)c4nccnc4c3=O)c(F)c2)cn1 (stereo not drawn) [Compound A81, 6-(2-fluoro-4-(1-methyl-1H-pyrazol-4-yl)benzyl)-5-oxo-N-(3,3,3-trifluoro-2-hydroxypropyl)-5,6-dihydropyrido[3,4-b]pyrazine-8-carboxamide]
> 10	< 5	≥ 10	26	CC(C)[C@@H](CO)NC(=O)c1cn(Cc2ccc(-c3cnn(C)c3)cc2F)c(=O)c2nccnc12 [Compound A82, (S)-6-(2-fluoro-4-(1-methyl-1H-pyrazol-4-yl)benzyl)-N-(1-hydroxy-3-methylbutan-2-yl)-5-oxo-5,6-dihydropyrido[3,4-b]pyrazine-8-carboxamide]
